Results as given in patent US20240132489A1, “AROMATIC HETEROCYCLIC COMPOUND, PHARMACEUTICAL COMPOSITION, AND USE THEREOF” (GT APEIRON THERAPEUTICS LIMITED, priority 2020, published 2024).
Counter-ions that a name gives are not always drawn.

Key:
[1] = molecular target: CDK12(aa686-1082)/cyclin K complex (Homo sapiens (Human), UniProt Q9NYV4); test: In vitro enzymatic inhibitory activity test, CDK12; type: biochemical; conditions: Caliper mobility shift, 180 min at 27° C.
A2780 cells = test: Cell bioactivity detection (CyQuant), A2780; type: cell-based, human; conditions: ovarian carcinoma cells A2780, 72 hours
How it was run: (§1)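 A2780 or HCC70 cells (2000/well, RPMI 1640 + 10% FBS) were seeded overnight, then treated for 72 h at 37° C, 5% CO2 with compound: top 10 μM, 1:4 dilutions, 9 points, 0.2% DMSO. Viable cell number was measured by CyQuant Direct nucleic-acid staining (≥60 min, 37° C) on an Acumen reader at 488 nm excitation, and IC50 was calculated.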

[2] = molecular target: CDK7/cyclin H/MAT1 complex (Homo sapiens (Human), UniProt P50613); test: In vitro enzymatic inhibitory activity test, CDK7; type: biochemical; conditions: Caliper mobility shift, 180 min at 27° C.
CDK2/cyclin E1 complex = CDK2/cyclin E1 complex (Homo sapiens (Human), UniProt P24941); test: In vitro enzymatic inhibitory activity test, CDK2; type: biochemical; conditions: Caliper mobility shift, 180 min at 27° C.
CDK9/CyclinT1 = CDK9/CyclinT1 (Homo sapiens (Human), UniProt P50750); test: In vitro enzymatic inhibitory activity test, CDK9; type: biochemical; conditions: Caliper mobility shift, 180 min at 27° C.
HCC70 cells = test: Cell bioactivity detection (CyQuant), HCC70; type: cell-based; conditions: human breast cancer cells HCC70, 72 hours
How it was run: as §1

Chain of CDK9/CyclinT1 (P50750 whole entry, species assumed): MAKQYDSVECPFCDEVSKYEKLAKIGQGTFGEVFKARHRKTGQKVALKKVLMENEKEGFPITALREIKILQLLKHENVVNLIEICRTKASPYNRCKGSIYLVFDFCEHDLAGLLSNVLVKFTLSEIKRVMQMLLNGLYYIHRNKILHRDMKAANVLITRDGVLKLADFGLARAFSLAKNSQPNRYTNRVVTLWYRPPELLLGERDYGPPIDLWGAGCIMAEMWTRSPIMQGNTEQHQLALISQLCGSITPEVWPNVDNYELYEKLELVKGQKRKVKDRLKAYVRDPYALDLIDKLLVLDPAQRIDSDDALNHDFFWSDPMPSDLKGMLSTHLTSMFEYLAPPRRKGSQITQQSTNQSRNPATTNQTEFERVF
Chain of CDK9/CyclinT1 (O60563 whole entry partner, species assumed): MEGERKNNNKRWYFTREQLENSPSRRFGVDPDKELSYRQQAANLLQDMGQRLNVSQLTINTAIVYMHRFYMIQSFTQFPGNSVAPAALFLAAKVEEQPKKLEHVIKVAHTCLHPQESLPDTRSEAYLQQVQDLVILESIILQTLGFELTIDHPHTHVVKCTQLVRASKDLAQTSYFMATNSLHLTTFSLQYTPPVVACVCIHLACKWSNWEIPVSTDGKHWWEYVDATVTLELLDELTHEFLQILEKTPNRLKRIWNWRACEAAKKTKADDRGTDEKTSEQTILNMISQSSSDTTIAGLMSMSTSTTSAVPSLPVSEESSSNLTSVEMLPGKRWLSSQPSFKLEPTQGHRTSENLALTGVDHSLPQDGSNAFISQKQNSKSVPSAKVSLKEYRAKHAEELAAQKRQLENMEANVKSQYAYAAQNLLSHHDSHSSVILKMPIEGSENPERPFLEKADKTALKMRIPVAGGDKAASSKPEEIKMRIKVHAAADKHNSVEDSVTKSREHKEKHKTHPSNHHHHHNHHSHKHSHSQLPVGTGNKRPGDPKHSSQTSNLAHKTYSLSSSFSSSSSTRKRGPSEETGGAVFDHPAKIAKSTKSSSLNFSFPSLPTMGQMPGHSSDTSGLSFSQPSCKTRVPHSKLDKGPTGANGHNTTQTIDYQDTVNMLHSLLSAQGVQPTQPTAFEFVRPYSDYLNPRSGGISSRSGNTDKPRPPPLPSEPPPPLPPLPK
Chain of CDK7/cyclin H/MAT1 complex (P50613 whole entry, species assumed): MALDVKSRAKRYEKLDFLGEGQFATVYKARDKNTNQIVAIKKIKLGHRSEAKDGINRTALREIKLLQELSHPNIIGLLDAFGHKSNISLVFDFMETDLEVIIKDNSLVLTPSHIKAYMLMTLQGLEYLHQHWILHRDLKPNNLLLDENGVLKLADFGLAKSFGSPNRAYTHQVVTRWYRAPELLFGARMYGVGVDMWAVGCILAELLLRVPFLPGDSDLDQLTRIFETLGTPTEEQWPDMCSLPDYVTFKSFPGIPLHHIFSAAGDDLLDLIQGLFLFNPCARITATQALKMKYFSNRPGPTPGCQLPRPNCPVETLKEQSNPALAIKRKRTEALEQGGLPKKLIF
Chain of CDK7/cyclin H/MAT1 complex (P51946 whole entry partner, species assumed): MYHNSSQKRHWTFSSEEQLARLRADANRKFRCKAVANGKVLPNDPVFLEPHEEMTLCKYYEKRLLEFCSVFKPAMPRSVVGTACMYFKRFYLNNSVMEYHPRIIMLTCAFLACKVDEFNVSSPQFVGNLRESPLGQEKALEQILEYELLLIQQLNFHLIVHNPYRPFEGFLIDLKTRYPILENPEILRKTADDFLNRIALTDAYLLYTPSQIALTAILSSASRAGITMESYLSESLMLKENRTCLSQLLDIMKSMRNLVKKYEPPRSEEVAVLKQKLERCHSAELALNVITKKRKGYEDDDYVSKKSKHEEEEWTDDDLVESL
Chain of CDK7/cyclin H/MAT1 complex (P51948 whole entry partner, species assumed): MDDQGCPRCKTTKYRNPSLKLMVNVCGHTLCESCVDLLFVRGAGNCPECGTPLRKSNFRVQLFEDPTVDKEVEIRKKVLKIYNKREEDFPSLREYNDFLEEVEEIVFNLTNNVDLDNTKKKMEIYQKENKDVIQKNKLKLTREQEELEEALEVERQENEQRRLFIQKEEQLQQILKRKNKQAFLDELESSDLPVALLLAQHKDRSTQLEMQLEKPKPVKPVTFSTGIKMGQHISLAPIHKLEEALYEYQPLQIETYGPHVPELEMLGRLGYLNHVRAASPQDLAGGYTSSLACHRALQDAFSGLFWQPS
Chain of CDK12(aa686-1082)/cyclin K complex (Q9NYV4 686-1082, species assumed): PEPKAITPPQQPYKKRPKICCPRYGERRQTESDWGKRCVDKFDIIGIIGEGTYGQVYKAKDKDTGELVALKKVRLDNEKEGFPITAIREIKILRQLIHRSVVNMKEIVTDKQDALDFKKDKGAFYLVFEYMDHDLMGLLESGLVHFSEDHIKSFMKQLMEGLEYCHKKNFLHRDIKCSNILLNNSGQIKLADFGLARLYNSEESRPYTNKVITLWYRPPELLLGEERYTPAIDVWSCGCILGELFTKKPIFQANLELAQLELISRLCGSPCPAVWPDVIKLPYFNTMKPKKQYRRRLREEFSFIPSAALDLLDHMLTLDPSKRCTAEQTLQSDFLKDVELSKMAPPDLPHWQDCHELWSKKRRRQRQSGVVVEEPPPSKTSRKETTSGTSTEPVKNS
Chain of CDK12(aa686-1082)/cyclin K complex (O75909 whole entry partner, species assumed, the tested form may be a part): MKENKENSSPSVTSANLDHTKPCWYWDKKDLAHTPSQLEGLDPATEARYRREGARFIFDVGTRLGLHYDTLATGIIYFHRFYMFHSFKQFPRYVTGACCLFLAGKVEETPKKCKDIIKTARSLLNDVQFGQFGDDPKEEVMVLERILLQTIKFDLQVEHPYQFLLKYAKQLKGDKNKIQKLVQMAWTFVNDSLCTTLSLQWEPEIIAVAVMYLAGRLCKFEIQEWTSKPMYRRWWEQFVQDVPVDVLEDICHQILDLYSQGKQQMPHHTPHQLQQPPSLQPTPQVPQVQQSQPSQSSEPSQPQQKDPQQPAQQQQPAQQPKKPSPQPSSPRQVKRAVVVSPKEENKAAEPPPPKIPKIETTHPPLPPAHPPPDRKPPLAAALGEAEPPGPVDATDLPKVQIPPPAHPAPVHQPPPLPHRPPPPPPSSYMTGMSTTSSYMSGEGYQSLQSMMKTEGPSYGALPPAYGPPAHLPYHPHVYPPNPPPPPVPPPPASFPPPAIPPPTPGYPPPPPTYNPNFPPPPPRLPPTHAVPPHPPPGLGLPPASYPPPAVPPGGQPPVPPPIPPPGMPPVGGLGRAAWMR

SMILES | IC50 [1] [nM] | IC50 (A2780 cells; Homo sapiens, A2780, 72 h) [nM] | IC50 [2] [nM] | IC50 (CDK2/cyclin E1 complex) [nM] | IC50 (CDK9/CyclinT1) [nM] | IC50 (HCC70 cells; Homo sapiens, HCC70, 72 h) [nM] | IC50 (A2780 cells) [nM] | IC50 (HCC70 cells) [nM]
FC(F)(F)c1cnc(N[C@H]2CCCNC2)nc1-c1c[nH]c2nc(N3CCOCC3)ccc12 [Compound 1, (S)-4-(6-morpholinyl-1H-pyrrolo[2,3-b]pyridin-3-yl)-N-(piperidin-3-yl)-5-(trifluoromethyl)pyrimidine-2-amine] | 1460 | 14 | 13.4 | 3020 | 1180 | 14 | – | –
FC(F)(F)c1cnc(N[C@H]2CCCNC2)nc1-c1c[nH]c2nc(N3CCCC4(CCOCC4)C3)ccc12 [Compound 10, (S)-4-(6-(9-oxa-2-azaspiro[5.5]undecan-2-yl)-1H-pyrrolo[2,3-b]pyridin-3-yl)-N-(piperidin-3-yl)-5-(trifluoromethyl)pyrimidine-2-amine] | 823 | 109 | 27 | 2090 | 4010 | 102 | – | –
CC1(C#N)CN(c2ccc3c(-c4nc(N[C@H]5CCCNC5)ncc4C(F)(F)F)c[nH]c3n2)C1 [Compound 21, (S)-3-methyl-1-(3-(2-(piperidine-3-amino)-5-(trifluoromethyl)pyrimidin-4-yl)-1H-pyrrolo[2,3-b]pyridin-6-yl)azetidine-3-formonitrile] | 818 | 19 | 8.81 | 4330 | 2980 | 27.8 | – | –
FC(F)(F)c1cnc(N[C@H]2CCCNC2)nc1-c1c[nH]c2nc(C3CCCCO3)ccc12 (stereo partly drawn) [Compound 30, N—((S)-piperidin-3-yl)-4-(6-(tetrahydropyran-2-yl)-1H-pyrrolo[2,3-b]pyridin-3-yl)-5-(trifluoromethyl)pyrimidine-2-amine formate] | 2150 | 5.6 | 10.5 | 3260 | 9530 | 20 | – | –
N#CC1CCN(c2ccc3c(-c4nc(N[C@H]5CCCNC5)ncc4C(F)(F)F)c[nH]c3n2)CC1 [Compound 20, (S)-1-(3-(2-(piperidine-3-amino)-5-(trifluoromethyl)pyrimidin-4-yl)-1H-pyrrolo[2,3-b]pyridin-6-yl)piperidine-4-nitrile] | 765 | 8.3 | 8.43 | 3280 | 2970 | 13.7 | – | –
FC(F)(F)c1cnc(N[C@H]2CCCNC2)nc1-c1c[nH]c2nc(N3CC4(CCCOC4)C3)ccc12 [Compound 17, (S)-4-(6-(6-oxa-2-azaspiro[3.5]nonan-2-yl)-1H-pyrrolo[2,3-b]pyridin-3-yl)-N-(piperidin-3-yl)-5-(trifluoromethyl)pyrimidine-2-amine] | 1630 | 212 | 20 | 5480 | 4250 | 102 | – | –
C[C@H]1COCCN1c1ccc2c(-c3nc(N[C@@H]4CNCC(F)(F)C4)ncc3C(F)(F)F)c[nH]c2n1 [Compound 71, N—((S)-5,5-difluoropiperidin-3-yl)-4-(6-((S)-3-methylmorpholinyl)-1H-pyrrol[2,3-b]pyridin-3-yl)-5-(trifluoromethyl)pyrimidine-2-amine] | 6680 | – | 31.7 | 9300 | > 50000 | – | 547 | 390
C[C@H]1CNC[C@@H](Nc2ncc(C(F)(F)F)c(-c3c[nH]c4nc(N5CCOC[C@@H]5C)ccc34)n2)C1 [Compound 72, 4-(6-((S)-3-methylmorpholinyl)-1H-pyrrol[2,3-b]pyridin-3-yl)-N-((3S,5R)-5-methylpiperidin-3-yl)-5-(trifluoromethyl)pyrimidine-2-amine] | 2540 | – | 17.6 | 3350 | 1820 | – | 2.8 | 21
